For data set [1], the target named is T1, Sentrin-specific protease 1 (Homo sapiens, UniProt Q9P0U3).
T1 sequence (Q9P0U3 whole entry): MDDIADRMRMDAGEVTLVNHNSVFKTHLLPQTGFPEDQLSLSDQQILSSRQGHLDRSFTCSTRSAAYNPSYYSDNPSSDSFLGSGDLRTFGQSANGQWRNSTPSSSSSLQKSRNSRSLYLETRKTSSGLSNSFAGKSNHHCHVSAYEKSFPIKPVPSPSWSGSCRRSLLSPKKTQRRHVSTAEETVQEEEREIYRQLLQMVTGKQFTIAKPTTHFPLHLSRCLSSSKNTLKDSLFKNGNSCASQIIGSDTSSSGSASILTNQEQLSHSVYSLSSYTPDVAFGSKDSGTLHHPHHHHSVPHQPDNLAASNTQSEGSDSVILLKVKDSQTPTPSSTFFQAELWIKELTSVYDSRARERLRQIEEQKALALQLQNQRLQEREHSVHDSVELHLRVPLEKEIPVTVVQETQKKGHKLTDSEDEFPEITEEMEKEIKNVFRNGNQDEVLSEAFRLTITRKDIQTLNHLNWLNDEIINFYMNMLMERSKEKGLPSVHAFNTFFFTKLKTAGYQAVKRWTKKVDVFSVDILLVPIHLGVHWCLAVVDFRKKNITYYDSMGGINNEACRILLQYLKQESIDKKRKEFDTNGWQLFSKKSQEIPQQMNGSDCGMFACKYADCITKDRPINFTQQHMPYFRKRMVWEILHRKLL
Description: Inhibition of recombinant human SENP1 catalytic domain using RanGAP1 as substrate preincubated for 10 mins followed by substrate addition and measured after 30 mins by Western blot analysis.

In data set [2] the test system is HeLa. Description: Radiosensitizing activity against human HeLa cells assessed as reduction in cell survival fractions at 5 uM pretreated for 24 hrs followed by exposure to 4 to 8 Gy gamma irradiation and measured after 2 weeks by crystal violet staining based analysis. The format is functional.
Data set [3] concerns HeLa. The data set can be described thus: Radiosensitizing activity against human HeLa cells assessed as average lethal dose at 5 uM pretreated for 24 hrs followed by exposure to 2 to 8 Gy gamma irradiation and measured after 2 weeks by crystal violet staining based analysis (reference value: 1.47 Gy). In kind it is functional.
Data set [4] deals with HeLa. Description: Radiosensitizing activity against human HeLa cells assessed as quasi-threshold dose at 5 uM pretreated for 24 hrs followed by exposure to 2 to 8 Gy gamma irradiation and measured after 2 weeks by crystal violet staining based analysis (reference value: 1.72 Gy). In kind it is functional.
The test system of data set [5] is HeLa. Description: Radiosensitizing activity against human HeLa cells assessed as radiosensitization enhancement ratio at 5 uM pretreated for 24 hrs followed by exposure to 2 to 8 Gy gamma irradiation and measured after 2 weeks by crystal violet staining based analysis (reference value: 1). The format is functional.
Data set [6] can be described thus: Cytotoxicity against human HeLa cells assessed as inhibition of cell growth incubated for 72 hrs by CCK-8 assay. The format is toxicity, cell-based.

The source made the active and inactive calls. A value given as a limit tells only on which side of the number the result lay.

`C[C@H]1[C@H](C)CC[C@]2(C(=O)O)CC[C@]3(C)C(=CC[C@@H]4[C@@]5(C)CC[C@H](O)C(C)(C)[C@@H]5CC[C@]43C)[C@H]12` [URSOLIC ACID]: the IC50 (usually the point on the concentration scale where inhibition reaches its midpoint) in data set [1] was determined as 2.58 µM. Besides, in the data set with HeLa [2], the outcome was Active. Moreover, the LD in the data set on HeLa [3] was determined as 1.2 Gy; in the data set with HeLa [4], 1.77 Gy. For the same compound, in the data set with HeLa [5], the Ratio turned out to be 1.22.
Turning to `C[C@H]1[C@H](C)CC[C@]2(C(=O)OCC(=O)O)CC[C@]3(C)C(=CC[C@@H]4[C@@]5(C)CC[C@H](O)C(C)(C)[C@@H]5CC[C@]43C)[C@H]12`, in data set [6], the IC50 at 72 h is greater than 20 µM. Moreover, in the data set with HeLa [2], the outcome was Active. The LD in the data set on HeLa [3] is given as 1.26 Gy; in the data set on HeLa [4], 2.07 Gy.
`C[C@H]1[C@H](C)CC[C@]2(C(=O)OCCN3CCCCC3)CC[C@]3(C)C(=CC[C@@H]4[C@@]5(C)CC[C@H](O)C(C)(C)[C@@H]5CC[C@]43C)[C@H]12`: the IC50 at 72 h in data set [6] was greater than 20 µM.
Same read-out and setting: the same measure for `CNC(=O)CN(C)C(=O)[C@]12CC[C@@H](C)[C@H](C)[C@H]1C1=CC[C@@H]3[C@@]4(C)CC[C@H](O)C(C)(C)[C@@H]4CC[C@@]3(C)[C@]1(C)CC2`: greater than 20 µM; for `C[C@H]1[C@H](C)CC[C@]2(C(=O)NCC(=O)NCCO)CC[C@]3(C)C(=CC[C@@H]4[C@@]5(C)CC[C@H](O)C(C)(C)[C@@H]5CC[C@]43C)[C@H]12`: greater than 20 µM; for `C[C@H]1[C@H](C)CC[C@]2(C(=O)OCC(=O)OC(C)(C)C)CC[C@]3(C)C(=CC[C@@H]4[C@@]5(C)CC[C@H](O)C(C)(C)[C@@H]5CC[C@]43C)[C@H]12`: greater than 20 µM.
On the same count and under the same terms, with `COC(=O)CN(C)C(=O)[C@]12CC[C@@H](C)[C@H](C)[C@H]1C1=CC[C@@H]3[C@@]4(C)CC[C@H](OC(C)=O)C(C)(C)[C@@H]4CC[C@@]3(C)[C@]1(C)CC2` the figure was greater than 20 µM.
Regarding `CNC(=O)CCNC(=O)[C@]12CC[C@@H](C)[C@H](C)[C@H]1C1=CC[C@@H]3[C@@]4(C)CC[C@H](OC(C)=O)C(C)(C)[C@@H]4CC[C@@]3(C)[C@]1(C)CC2`, in data set [6], the IC50 at 72 h was greater than 20 µM.
As for `CNC(=O)CNC(=O)[C@]12CC[C@@H](C)[C@H](C)[C@H]1C1=CC[C@@H]3[C@@]4(C)CC[C@H](O)C(C)(C)[C@@H]4CC[C@@]3(C)[C@]1(C)CC2`, the IC50 at 72 h in data set [6] was greater than 20 µM. Further, in the data set with HeLa [2], the outcome was Active. In addition, the LD with HeLa [3] is 1.02 Gy; in the data set on HeLa [4] it was 1.92 Gy.
Consider `C[C@H]1[C@H](C)CC[C@]2(C(=O)NCC(N)=O)CC[C@]3(C)C(=CC[C@@H]4[C@@]5(C)CC[C@H](O)C(C)(C)[C@@H]5CC[C@]43C)[C@H]12`, for which the IC50 at 72 h in data set [6] was greater than 20 µM.
